Literature values as cited in PubChem BioAssay AID1259409 (Chemical Carcinogenesis Research Information System (CCRIS), 2018).

Test system: rodent chemically induced tumor inhibition, incidence and multiplicity
Assay: CCRIS tumor inhibitor studies

## O=C1O[C@H]([C@@H](O)CO)C(O)=C1O
Carcinogen: 7,12-DIMETHYLBENZ[A]ANTHRACENE, 57-97-6, Dose [Inhibitor]: 0, 5000 PPM IN DRINKING WATER FOR 5 MO (STUDY DURATION: 5 MO), Route [Inhibitor]: ORAL, Species: RAT, Strain/Sex: SWISS/FEMALE, Target Tissue: Type of Lesion: MAMMARY GLAND: CRIBRIFORM CARCINOMA, Dose [Carcinogen]: 10 MG ONCE, Promoter: NONE USED
  tumour outcome (control, treated, inhibition, significance): 85%, 50%, 41%, not calculated
Carcinogen: 7,12-DIMETHYLBENZ[A]ANTHRACENE, 57-97-6, Dose [Inhibitor]: 0.2% IN 0.25 ML OF 20:80 WATER-ACETONE DAILY FOR 20 D BEGINNING 1 D POST CARCINOGEN TREATMENT (STUDY DURATION: 19 WK), Route [Inhibitor]: DERMAL, Species: MOUSE, Strain/Sex: ICR/FEMALE, Target Tissue: Type of Lesion: SKIN: PAPILLOMA, Dose [Carcinogen]: 0.125 MG IN 0.25 ML ACETONE ONCE, Promoter: CROTON OIL, 8001-28-3
  tumour outcome (control, treated, inhibition, significance): 43%, 48%, -12%, not significant
Carcinogen: 7,12-DIMETHYLBENZ[A]ANTHRACENE, 57-97-6, Dose [Inhibitor]: 1000 UG APPLIED ONCE 5 MIN PRIOR TO CARCINOGEN DOSE (STUDY DURATION: 28 WK), Route [Inhibitor]: DERMAL, Species: MOUSE, Strain/Sex: CD-1/FEMALE, Target Tissue: Type of Lesion: SKIN: PAPILLOMA, Dose [Carcinogen]: 2.56 UG ONCE, Promoter: 12-O-TETRADECANOYLPHORBOL-13-ACETATE, 16561-29-8
  tumour outcome (control, treated, inhibition, significance): 82%, 56%, 32%, not calculated
Carcinogen: 17BETA-ESTRADIOL, 50-28-2, Dose [Inhibitor]: 1% (W/V) IN REVERSED OSMOSIS DEIONIZED DRINKING WATER FOR 103 D STARTING 93 D AFTER START OF STUDY (STUDY DURATION: 196, Route [Inhibitor]: ORAL, Species: HAMSTER, Strain/Sex: SYRIAN/MALE, Target Tissue: Type of Lesion: KIDNEY: CARCINOMA, Dose [Carcinogen]: 90% OF 31 MG PELLET AT START OF STUDY AND 90% OF 45 MG PELLET 3 MO LATER, Promoter: NONE USED
  tumour outcome (control, treated, inhibition, significance): 16/23 (70%), 9/19 (47%), 33%, not significant
Carcinogen: 17BETA-ESTRADIOL, 50-28-2, Dose [Inhibitor]: 1% (W/V) IN REVERSED OSMOSIS DEIONIZED DRINKING WATER FOR FIRST 92 D OF STUDY (STUDY DURATION: 196 D), Route [Inhibitor]: ORAL, Species: HAMSTER, Strain/Sex: SYRIAN/MALE, Target Tissue: Type of Lesion: KIDNEY: CARCINOMA, Dose [Carcinogen]: 90% OF 31 MG PELLET AT START OF STUDY AND 90% OF 45 MG PELLET 3 MO LATER, Promoter: NONE USED
  tumour outcome (control, treated, inhibition, significance): 16/23 (70%), 15/17 (88%), -26%, not significant
Carcinogen: 17BETA-ESTRADIOL, 50-28-2, Dose [Inhibitor]: 1% IN REVERSED OSMOSIS DEIONIZED DRINKING WATER FOR DURATION OF STUDY (STUDY DURATION: 196 D), Route [Inhibitor]: ORAL, Species: HAMSTER, Strain/Sex: SYRIAN/MALE, Target Tissue: Type of Lesion: KIDNEY: CARCINOMA, Dose [Carcinogen]: 90% OF 31 MG PELLET AT START OF STUDY AND 90% OF 45 MG PELLET 3 MO LATER, Promoter: NONE USED
  tumour outcome (control, treated, inhibition, significance): 16/23 (70%), 10/33 (30%), 57%, p<0.005
Carcinogen: AMINOPYRENE, 1606-67-3, SODIUM NITRITE, 7632-00-0, Carcinogen: AMINOPYRENE, 1606-67-3, SODIUM NITRITE, 7632-00-0, Dose [Inhibitor]: 7 G/KG OF DIET FOR DURATION OF STUDY (STUDY DURATION: 40 WK), Route [Inhibitor]: ORAL, Species: RAT, Strain/Sex: SPRAGUE-DAWLEY/MALE, Target Tissue: Type of Lesion: LIVER: TUMORS, Dose [Carcinogen]: AMINOPYRENE 1 G/L AND SODIUM NITRITE 1 G/L IN DRINKING WATER 5 D/WK FOR 40 WK, Promoter: NONE USED
  tumour outcome (control, treated, inhibition, significance): 12/37 (32%), 0/39 (0%), 100%, not calculated
Carcinogen: AMINOPYRENE, 1606-67-3, SODIUM NITRITE, 7632-00-0, Carcinogen: AMINOPYRENE, 1606-67-3, SODIUM NITRITE, 7632-00-0, Dose [Inhibitor]: 7 G/KG OF DIET FOR DURATION OF STUDY (STUDY DURATION: 40 WK), Route [Inhibitor]: ORAL, Species: RAT, Strain/Sex: SPRAGUE-DAWLEY/MALE, Target Tissue: Type of Lesion: LUNG: TUMORS, Dose [Carcinogen]: AMINOPYRENE 1 G/L AND SODIUM NITRITE 1 G/L IN DRINKING WATER 5 D/WK FOR 40 WK, Promoter: NONE USED
  tumour outcome (control, treated, inhibition, significance): 25/37 (68%), 13/39 (33%), 51%, not calculated
Carcinogen: AMINOPYRENE, 1606-67-3, SODIUM NITRITE, 7632-00-0, Carcinogen: AMINOPYRENE, 1606-67-3, SODIUM NITRITE, 7632-00-0, Dose [Inhibitor]: 7 G/KG OF DIET FOR THE DURATION OF STUDY (STUDY DURATION: 40 WK), Route [Inhibitor]: ORAL, Species: RAT, Strain/Sex: SPRAGUE-DAWLEY/MALE, Target Tissue: Type of Lesion: KIDNEY: TUMORS, Dose [Carcinogen]: AMINOPYRINE 1 G/L AND SODIUM NITRITE 1 G/L IN DRINKING WATER 5 D/WK FOR 40 WK, Promoter: NONE USED
  tumour outcome (control, treated, inhibition, significance): 10/37 (27%), 7/39 (18%), 33%, not calculated
Carcinogen: BENZO[A]PYRENE, 50-32-8, Dose [Inhibitor]: 0, 10 MG/ML IN DRINKING WATER FOR 6 WK (STUDY DURATION: 9 WK), Route [Inhibitor]: ORAL, Species: MOUSE, Strain/Sex: NIGP(S)/FEMALE, Target Tissue: Type of Lesion: LUNG: ADENOMA, Dose [Carcinogen]: 0.5 MG INJECTED IN THE SCAPULAR REGION OF NEWBORN MICE ONCE, Promoter: NONE USED
  tumour outcome (control, treated, inhibition, significance): 56%, 35%, 38%, not calculated
Carcinogen: BENZO[A]PYRENE, 50-32-8, Dose [Inhibitor]: 0, 10 MG/ML IN DRINKING WATER FOR 6 WK (STUDY DURATION: 9 WK), Route [Inhibitor]: ORAL, Species: MOUSE, Strain/Sex: NIGP(S)/MALE, Target Tissue: Type of Lesion: LUNG: ADENOMA, Dose [Carcinogen]: 0.5 MG INJECTED IN THE SCAPULAR REGION OF NEWBORN MICE ONCE, Promoter: NONE USED
  tumour outcome (control, treated, inhibition, significance): 38%, 24%, 37%, not calculated
Carcinogen: BENZO[A]PYRENE, 50-32-8, Dose [Inhibitor]: 0.068 MMOL/G IN DIET FOR 5 WK BEGINNING 1 WK PRIOR TO CARCINOGEN DOSE (STUDY DURATION: 21 WK), Route [Inhibitor]: ORAL, Species: MOUSE, Strain/Sex: ICR/HA/FEMALE, Target Tissue: Type of Lesion: FORESTOMACH: TUMOR, Dose [Carcinogen]: 1 MG IN 0.2 ML CORN OIL 2/WK FOR 4 WK, Promoter: NONE USED
  tumour outcome (control, treated, inhibition, significance): 100%, 95%, 5%, not significant
Carcinogen: DIETHYLNITROSAMINE, 55-18-5, Dose [Inhibitor]: 0, 3 G/L IN DRINKING WATER BEGINNING 1 D PRIOR TO FIRST CARCINOGEN DOSE AND CONTINUING TO 2 D POST LAST CARCINOGEN DOSE, Route [Inhibitor]: ORAL, Species: RAT, Strain/Sex: BD6/FEMALE, Target Tissue: Type of Lesion: ESOPHAGUS: TUMOR, Dose [Carcinogen]: 80 MG/KG BW 1/WK FOR 8 WK, Promoter: NONE USED
  tumour outcome (control, treated, inhibition, significance): 31%, 28%, 10%, not significant
